Results reported in patent US12195439B1, “C1-substituted isopropylamine fused heterocyclic mescaline derivatives” (Enveric Biosciences Canada Inc., priority 2022, dated 2025).
Read-outs that look alike come from different tables or passages of the source.

Experiments:
[1] = target: T1, serotonin transporter (SERT) (Homo sapiens, UniProt P31645); test: biochemical; assay type: binding; details: for SERT, percent of control-specific binding: 10 µM; for inhibition at 10 µM: read-out: SERT, percent of control-specific binding
T1 construct: host or cells: CHO cells (membrane preparation)

5-HT7 receptor = target: T2, 5-HT7 receptor (Homo sapiens, UniProt P34969); test: Eurofins Cerep competition binding assay at 5-HT7 receptor; details: 10 μM test ligand, [3H]LSD, recombinant receptor from HEK-293 cells; for inhibition at 10 µM: read-out: HT7, percent of control-specific binding
T2 construct: host or cells: HEK-293 cells (membrane preparation)

[2] = target: T3, norepinephrine transporter (NET) (Homo sapiens, UniProt P23975); test: Eurofins Cerep competition binding assay at norepinephrine transporter; details: for NET, percent of control-specific binding: 10 μM test ligand, [3H]nisoxetine, recombinant transporter from CHO cells; for inhibition at 10 µM: read-out: NET, percent of control-specific binding, 10 μM test ligand, [3H]nisoxetine, recombinant transporter from CHO cells
T3 construct: host or cells: CHO cells (membrane preparation)

5-HT2B receptor = target: T4, 5-HT2B receptor (Homo sapiens, UniProt P41595); test: Eurofins Cerep competition binding assay at 5-HT2B receptor; details: 10 μM test ligand, [3H]mesulergine, recombinant receptor from CHO cells; for inhibition at 10 µM: read-out: HT2B, percent of control-specific binding
T4 construct: host or cells: CHO cells (membrane preparation)

[3] = target: T5, dopamine transporter (DAT) (Homo sapiens, UniProt Q01959); test: Eurofins Cerep competition binding assay at dopamine transporter; details: for DAT, percent of control-specific binding: 10 μM test ligand, [3H]BTCP, recombinant transporter from CHO cells; for inhibition at 10 µM: read-out: DAT, percent of control-specific binding, 10 μM test ligand, [3H]BTCP, recombinant transporter from CHO cells
T5 construct: host or cells: CHO cells (membrane preparation)

5-HT1A receptor [4] = target: T6, 5-HT1A receptor (Homo sapiens, UniProt P08908); test: 5-HT1A receptor functional cellular response (cAMP) assay; assay type: cell-based
T6 construct: purchased Perkin Elmer 6110501400UA
T6 sequence (P08908 1-422): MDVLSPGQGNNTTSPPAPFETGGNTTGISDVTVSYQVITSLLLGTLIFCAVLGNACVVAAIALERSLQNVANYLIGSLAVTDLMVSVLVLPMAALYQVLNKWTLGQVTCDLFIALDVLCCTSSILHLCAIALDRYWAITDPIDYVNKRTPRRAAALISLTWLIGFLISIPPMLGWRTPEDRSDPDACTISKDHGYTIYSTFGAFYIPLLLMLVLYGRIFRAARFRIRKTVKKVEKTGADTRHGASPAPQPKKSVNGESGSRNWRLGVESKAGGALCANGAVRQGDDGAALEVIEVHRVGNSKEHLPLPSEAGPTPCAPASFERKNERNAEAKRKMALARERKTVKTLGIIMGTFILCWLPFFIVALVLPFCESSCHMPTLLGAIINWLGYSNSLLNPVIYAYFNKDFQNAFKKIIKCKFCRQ

MT1 receptor = target: T7, MT1 receptor (Homo sapiens, UniProt P48039); test: Eurofins Cerep competition binding assay at MT1 receptor; details: for MT1, percent of control-specific binding: 10 μM test ligand, [125I]2-iodomelatonin, recombinant receptor from CHO cells
T7 construct: host or cells: CHO cells (membrane preparation)

alpha2A receptor = target: T8, alpha2A receptor (Homo sapiens, UniProt P08913); test: Eurofins Cerep competition binding assay at alpha2A receptor; details: 10 μM test ligand, [3H]RX 821002, recombinant receptor from CHO cells; for inhibition at 10 µM: read-out: α-2A, percent of control-specific binding
T8 construct: host or cells: CHO cells (membrane preparation)
T8 sequence (P08913 1-465): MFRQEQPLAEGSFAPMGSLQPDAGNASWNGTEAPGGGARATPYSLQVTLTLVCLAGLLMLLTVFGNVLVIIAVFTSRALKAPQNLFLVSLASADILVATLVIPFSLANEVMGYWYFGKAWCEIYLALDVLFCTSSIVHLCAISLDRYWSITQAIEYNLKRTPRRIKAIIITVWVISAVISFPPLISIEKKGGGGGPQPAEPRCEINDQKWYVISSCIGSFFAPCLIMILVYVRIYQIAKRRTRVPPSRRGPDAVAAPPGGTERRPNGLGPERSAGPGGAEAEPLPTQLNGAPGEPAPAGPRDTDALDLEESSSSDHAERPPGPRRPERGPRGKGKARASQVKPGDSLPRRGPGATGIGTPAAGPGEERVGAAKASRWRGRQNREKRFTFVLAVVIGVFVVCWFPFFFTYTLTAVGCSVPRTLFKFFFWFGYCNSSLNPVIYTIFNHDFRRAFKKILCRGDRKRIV

5-HT1A receptor [5] = target: T6, 5-HT1A receptor; test: Eurofins Cerep competition binding assay at 5-HT1A receptor; details: 10 μM test ligand, [3H]8-OH-DPAT, recombinant receptor from HEK-293 cells; for inhibition at 10 µM: read-out: HT1A, percent of control-specific binding
5-HT2C receptor = target: T9, 5-HT2C receptor (Homo sapiens, UniProt P28335); test: Eurofins Cerep competition binding assay at 5-HT2C receptor; details: 10 μM test ligand, [125I](±)DOI, recombinant receptor from HEK-293 cells; for inhibition at 10 µM: read-out: HT2C, percent of control-specific binding
T9 construct: host or cells: HEK-293 cells (membrane preparation)
T9 sequence (P28335 33-458): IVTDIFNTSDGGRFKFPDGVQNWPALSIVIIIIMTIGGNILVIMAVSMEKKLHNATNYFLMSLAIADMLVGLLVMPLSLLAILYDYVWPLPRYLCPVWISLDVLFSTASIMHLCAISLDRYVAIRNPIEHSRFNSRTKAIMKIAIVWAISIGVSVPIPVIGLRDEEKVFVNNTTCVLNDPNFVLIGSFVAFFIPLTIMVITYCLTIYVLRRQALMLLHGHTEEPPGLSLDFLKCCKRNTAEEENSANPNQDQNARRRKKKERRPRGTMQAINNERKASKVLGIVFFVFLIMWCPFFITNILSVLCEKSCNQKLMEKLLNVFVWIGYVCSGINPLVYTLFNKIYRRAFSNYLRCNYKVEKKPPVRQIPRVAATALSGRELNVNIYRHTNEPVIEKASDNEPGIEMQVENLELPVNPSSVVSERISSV

5-HT1A receptor [6] = target: T6, 5-HT1A receptor; test: 5-HT1A receptor radioligand competition assay (SPA); assay type: binding; details: competition with 0.5 nM [3H]8-hydroxy-DPAT, membranes containing 5-HT1A
[7] = read-out: MT1, percent of control-specific binding, 10 μM test ligand, [125I]2-iodomelatonin, recombinant receptor from CHO cells
[8] = read-out: MT1, percent of control-specific binding

T4 sequence (P41595 whole entry): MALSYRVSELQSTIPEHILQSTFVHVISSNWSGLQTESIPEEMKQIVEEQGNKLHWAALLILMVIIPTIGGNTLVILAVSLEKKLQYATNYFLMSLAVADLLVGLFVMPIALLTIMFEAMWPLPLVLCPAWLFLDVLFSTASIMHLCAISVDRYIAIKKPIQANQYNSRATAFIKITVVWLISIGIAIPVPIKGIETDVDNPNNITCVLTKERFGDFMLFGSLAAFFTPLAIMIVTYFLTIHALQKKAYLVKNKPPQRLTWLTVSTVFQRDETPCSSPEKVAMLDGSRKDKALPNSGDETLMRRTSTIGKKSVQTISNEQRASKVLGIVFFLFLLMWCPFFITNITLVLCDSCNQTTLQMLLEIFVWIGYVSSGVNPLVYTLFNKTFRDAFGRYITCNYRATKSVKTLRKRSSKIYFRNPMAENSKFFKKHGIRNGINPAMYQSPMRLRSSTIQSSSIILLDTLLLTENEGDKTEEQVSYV
T1 sequence (P31645 whole entry): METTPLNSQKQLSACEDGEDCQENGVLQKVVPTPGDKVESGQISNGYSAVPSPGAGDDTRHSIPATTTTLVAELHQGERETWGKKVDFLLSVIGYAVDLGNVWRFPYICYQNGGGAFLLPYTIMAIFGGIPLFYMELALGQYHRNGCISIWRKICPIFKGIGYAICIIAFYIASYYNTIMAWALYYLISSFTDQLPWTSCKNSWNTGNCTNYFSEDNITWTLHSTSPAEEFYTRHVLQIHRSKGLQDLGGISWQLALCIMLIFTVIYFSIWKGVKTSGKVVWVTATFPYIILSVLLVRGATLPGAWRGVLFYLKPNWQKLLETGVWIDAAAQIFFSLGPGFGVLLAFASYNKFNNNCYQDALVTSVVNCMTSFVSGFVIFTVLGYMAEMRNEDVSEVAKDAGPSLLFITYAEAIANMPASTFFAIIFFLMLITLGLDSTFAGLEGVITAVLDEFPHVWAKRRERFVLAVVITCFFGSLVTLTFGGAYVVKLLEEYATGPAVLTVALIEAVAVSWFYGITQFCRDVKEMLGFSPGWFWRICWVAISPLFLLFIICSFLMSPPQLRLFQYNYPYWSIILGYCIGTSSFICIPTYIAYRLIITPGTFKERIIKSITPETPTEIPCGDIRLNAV
T7 sequence (P48039 whole entry): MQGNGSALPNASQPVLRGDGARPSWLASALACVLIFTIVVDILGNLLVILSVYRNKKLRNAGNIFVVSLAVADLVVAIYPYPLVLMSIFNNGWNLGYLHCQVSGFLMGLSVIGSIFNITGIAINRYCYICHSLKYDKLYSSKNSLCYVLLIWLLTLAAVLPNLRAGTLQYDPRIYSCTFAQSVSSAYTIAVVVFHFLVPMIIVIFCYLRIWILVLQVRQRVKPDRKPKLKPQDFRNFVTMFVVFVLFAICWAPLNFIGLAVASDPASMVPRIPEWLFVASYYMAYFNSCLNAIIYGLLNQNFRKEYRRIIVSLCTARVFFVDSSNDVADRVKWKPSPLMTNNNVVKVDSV
T5 sequence (Q01959 whole entry): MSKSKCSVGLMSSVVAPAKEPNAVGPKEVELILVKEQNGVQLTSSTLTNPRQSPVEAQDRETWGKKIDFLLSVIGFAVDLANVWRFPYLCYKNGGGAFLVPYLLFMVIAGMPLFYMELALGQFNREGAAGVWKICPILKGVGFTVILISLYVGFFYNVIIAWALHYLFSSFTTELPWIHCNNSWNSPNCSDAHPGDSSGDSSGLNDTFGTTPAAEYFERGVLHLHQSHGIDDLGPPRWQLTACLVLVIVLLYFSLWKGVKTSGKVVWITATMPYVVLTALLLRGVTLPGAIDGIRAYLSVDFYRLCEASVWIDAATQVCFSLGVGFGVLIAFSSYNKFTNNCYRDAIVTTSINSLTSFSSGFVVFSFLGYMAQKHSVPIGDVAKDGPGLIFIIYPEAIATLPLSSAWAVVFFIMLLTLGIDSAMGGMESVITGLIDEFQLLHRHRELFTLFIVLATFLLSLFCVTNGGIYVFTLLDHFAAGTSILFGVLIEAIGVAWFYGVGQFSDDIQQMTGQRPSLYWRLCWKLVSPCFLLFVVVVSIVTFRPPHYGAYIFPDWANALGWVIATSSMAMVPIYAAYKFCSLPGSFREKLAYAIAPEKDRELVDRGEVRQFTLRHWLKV
T3 sequence (P23975 whole entry): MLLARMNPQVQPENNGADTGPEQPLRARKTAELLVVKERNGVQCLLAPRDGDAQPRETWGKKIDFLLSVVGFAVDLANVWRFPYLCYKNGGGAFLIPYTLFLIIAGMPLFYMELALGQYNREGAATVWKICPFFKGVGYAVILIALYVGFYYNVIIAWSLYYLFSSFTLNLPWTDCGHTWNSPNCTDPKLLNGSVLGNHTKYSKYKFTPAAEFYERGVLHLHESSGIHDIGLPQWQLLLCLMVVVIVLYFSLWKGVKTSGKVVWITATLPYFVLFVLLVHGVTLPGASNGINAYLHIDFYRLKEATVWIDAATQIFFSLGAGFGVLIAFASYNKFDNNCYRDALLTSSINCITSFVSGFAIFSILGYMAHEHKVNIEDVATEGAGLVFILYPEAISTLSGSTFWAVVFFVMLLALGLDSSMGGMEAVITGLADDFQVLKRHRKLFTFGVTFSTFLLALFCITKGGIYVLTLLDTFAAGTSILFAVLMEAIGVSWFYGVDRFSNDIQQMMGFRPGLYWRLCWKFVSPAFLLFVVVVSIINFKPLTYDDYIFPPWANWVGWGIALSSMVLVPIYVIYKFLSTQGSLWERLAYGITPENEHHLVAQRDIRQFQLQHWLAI
T2 sequence (P34969 whole entry): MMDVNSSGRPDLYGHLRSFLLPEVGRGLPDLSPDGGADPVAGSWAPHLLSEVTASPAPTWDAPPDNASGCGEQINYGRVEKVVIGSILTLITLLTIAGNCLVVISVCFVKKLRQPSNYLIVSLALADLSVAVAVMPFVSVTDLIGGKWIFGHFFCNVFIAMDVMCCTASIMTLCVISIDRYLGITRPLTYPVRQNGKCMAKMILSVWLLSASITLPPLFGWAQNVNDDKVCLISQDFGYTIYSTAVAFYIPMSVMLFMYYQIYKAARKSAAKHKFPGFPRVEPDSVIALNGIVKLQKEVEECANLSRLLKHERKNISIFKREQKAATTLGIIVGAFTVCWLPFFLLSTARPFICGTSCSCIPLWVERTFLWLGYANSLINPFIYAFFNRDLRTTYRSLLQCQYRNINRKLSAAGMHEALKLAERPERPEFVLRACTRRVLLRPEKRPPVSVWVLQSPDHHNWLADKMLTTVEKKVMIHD

Row | SMILES | inhibition at 10 µM (5-HT2C receptor) [%] | inhibition at 10 µM (5-HT2B receptor) [%] | inhibition at 10 µM (MT1 receptor; [7]) [%] | inhibition at 10 µM (alpha2A receptor) [%] | inhibition at 10 µM (5-HT1A receptor [5]) [%] | inhibition at 10 µM (5-HT7 receptor) [%] | inhibition at 10 µM [2] [%] | inhibition at 10 µM [3] [%] | other results
1 | COc1cc(CCN)c(OC)cc1Br [2C-B] |  |  |  |  |  |  |  |  | SERT, percent of control-specific binding [1]: 42%; HT7, percent of control-specific binding (5-HT7 receptor): 88%; NET, percent of control-specific binding [2]: 13%; HT2B, percent of control-specific binding (5-HT2B receptor): 99%; DAT, percent of control-specific binding [3]: 5%; EC50 (5-HT1A receptor [4]; CHO-K1/5-HT1A/Gα15 cells stimulated with 4 μM forskolin, reduction of intracellular cAMP, read-out: 5-HT1A, EC50): 5.95 µM; MT1, percent of control-specific binding (MT1 receptor): 86%; α-2A, percent of control-specific binding (alpha2A receptor): 88%; HT1A, percent of control-specific binding (5-HT1A receptor [5]): 96%
2 | CNCC[C@H](Oc1cccc2ccccc12)c1cccs1 [Duloxetine, duloxetine] | 92 | 95 | 23 | 54 | 95 |  |  |  | 
3 | CN(C)CCCN1c2ccccc2CCc2ccccc21 [Imipramine, imipramine] | 98 | 94 | 29 | 57 | 34 | 93 | 99 | 23 | inhibition at 10 µM [1]: 98%
4 | COc1ccc2cccc(CCNC(C)=O)c2c1 [Agomelatine, agomelatine] | 92 | 93 |  | 2 | 58 | 20 | 1 | 1 | inhibition at 10 µM [1]: 30%; inhibition at 10 µM (MT1 receptor; [8]): 99%
5 | NCCc1c[nH]c2ccc(O)cc12 [serotonin] |  |  | 7 | 18 | 100 | 100 | -3 | 8 | 
6 | C[S+](C)[O-] [DMSO, dimethylsulfoxide] |  |  |  |  |  |  |  |  | Ki (5-HT1A receptor [6]; 5-HT1A, Ki): > 1000 µM
7 | CCOc1c(OC)cc(CCN)cc1OC [escaline] |  |  |  |  |  |  |  |  | HT2C, percent of control-specific binding (5-HT2C receptor): 95%; SERT, percent of control-specific binding [1]: 0%; HT7, percent of control-specific binding (5-HT7 receptor): 16%; NET, percent of control-specific binding [2]: 6%; HT2B, percent of control-specific binding (5-HT2B receptor): 81%; DAT, percent of control-specific binding [3]: 0%; MT1, percent of control-specific binding (MT1 receptor): 0%; Ki (5-HT1A receptor [6]; read-out: 5-HT1A, Ki): 12.4 µM; α-2A, percent of control-specific binding (alpha2A receptor): 45%; HT1A, percent of control-specific binding (5-HT1A receptor [5]): 44%
8 | CN(C)CCc1c[nH]c2cccc(O)c12 [psilocin] |  |  |  |  |  |  |  |  | EC50 (5-HT1A receptor [4]): 0.957 µM
9 | CC(C(F)c1ccc2c(c1)OCO2)N1CCCC1 (stereo not drawn) [D(I) as diast. (v)] |  |  |  |  |  |  |  |  | EC50 (5-HT1A receptor [4]): > 1000 µM
10 | Cc1ccc(Sc2ccccc2N2CCNCC2)c(C)c1 [vortioxetine] | 99 | 97 | 26 | 62 |  | 100 | 99 | 90 | inhibition at 10 µM [1]: 101%
11 | CC(NCc1ccccc1)C(C)c1ccc2c(c1)OCO2 (stereo not drawn) [Ex(VI) as diast. (xi) and (xii)] |  |  |  |  |  |  |  |  | Ki (5-HT1A receptor [6]; 5-HT1A, Ki): 65.9 µM
12 | CC(C(O)c1ccc2c(c1)OCO2)N(C)Cc1ccccc1 (single isomer, unassigned) [B(III) as diast. (iv)] |  |  |  |  |  |  |  |  | HT2C, percent of control-specific binding (5-HT2C receptor; 10 µM): 14%; SERT, percent of control-specific binding [1]: 44%; HT7, percent of control-specific binding (5-HT7 receptor; 10 µM): 23%; NET, percent of control-specific binding ([2]; 10 µM): 25%; HT2B, percent of control-specific binding (5-HT2B receptor; 10 µM): 28%; DAT, percent of control-specific binding ([3]; 10 µM): 76%; MT1, percent of control-specific binding (MT1 receptor; 10 µM): 15%; Ki (5-HT1A receptor [6]; 5-HT1A, Ki): 16.9 µM; α-2A, percent of control-specific binding (alpha2A receptor; 10 µM): 42%; HT1A, percent of control-specific binding (5-HT1A receptor [5]; 10 µM): 22%
13 | CC(NC(C)(C)C)C(=O)c1cccc(Cl)c1 (stereo not drawn) [Bupropion, bupropion] | 1 | -2 | 83 | 2 | -1 | 4 |  | 92 | 
14 | N#Cc1ccc2[nH]cc(CCCCN3CCN(c4ccc5oc(C(N)=O)cc5c4)CC3)c2c1 [Vilazodone, vilazodone] | 92 | 96 | 84 | 65 | 99 | 83 | 99 | 98 | inhibition at 10 µM [1]: 100%
15 | COc1ccc2[nH]cc(CCNC(C)=O)c2c1 [Melatonin, melatonin] | 19 | 52 |  | -7 | 46 | 8 | -2 | 4 | inhibition at 10 µM (MT1 receptor; [8]): 98%
16 | COc1cc(CC(C)N)c(OC)cc1Br (stereo not drawn) [DOB] |  |  |  |  |  |  |  |  | SERT, percent of control-specific binding [1]: 53%; HT7, percent of control-specific binding (5-HT7 receptor): 65%; NET, percent of control-specific binding [2]: 6%; HT2B, percent of control-specific binding (5-HT2B receptor): 97%; DAT, percent of control-specific binding [3]: 3%; MT1, percent of control-specific binding (MT1 receptor): −3%; α-2A, percent of control-specific binding (alpha2A receptor): 66%; HT1A, percent of control-specific binding (5-HT1A receptor [5]): 75%
17 | O=c1n(CCCN2CCN(c3cccc(Cl)c3)CC2)nc2ccccn12 [Trazodone, trazodone] | 93 | 97 | 14 | 91 | 97 | 99 | -1 | 24 | 
18 | CC(C(O)c1ccc2c(c1)OCO2)N(C)Cc1ccccc1 (stereo not drawn) [B(III) as diast. (iv)] |  |  |  |  |  |  |  |  | Ki (5-HT1A receptor [6]; 5-HT1A, Ki): 16.9 µM
